Each structure is given as a SMILES string.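 The compound was tested at five concentrations on cells cultured in 96-well plates, with a 48-hour exposure period. GI50 marks 50% less growth. TGI is the concentration that stops growth completely.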 Bounds are passed on as bounds.

The first assay concerns OVCAR-4 ovarian. In words: NCI tumour cell line growth inhibition, 48 h.
Take `COc1cc(OC)cc(-c2ccc(-c3ccc(C(=N)N)o3)o2)c1`: the GI50 was 3.51 µM and the TGI worked out at 14.8 µM.
Take `C[C@]12CC[C@H](O)CC1=CC[C@@H]1[C@@H]2CC[C@]2(C)C(c3cccnc3)=CC[C@@H]12`: the GI50 is 95.2 µM and the TGI was greater than 100 µM.
As to `Cc1ccc2c(c1)C(=O)/C(=C/c1ncc([N+](=O)[O-])n1C)O2`, the GI50 was 2.15 µM and the TGI is greater than 22.7 µM.
Consider `CC1OC(n2cc(F)c(=O)[nH]c2=O)CCC1O` (stereo not given), for which the TGI was greater than 100 µM.
As for `O=C(NCCOCCOCCNc1cccc2c1C(=O)N(C1CCCNC1=O)C2=O)c1cc2c(o1)C(=O)c1ccccc1C2=O` (stereo not given), the GI50 was 1.41 µM and the TGI is 2.73 µM.
The matching figures for `O=C(CN1CCOCC1)Nc1ccc(Cn2nnc3c2C(=O)c2nnn(Cc4ccc(NC(=O)CN5CCOCC5)cc4)c2C3=O)cc1`: 0.303 µM and 1.52 µM.
Turning to `O=C(c1ccco1)c1nc2ccc(C(F)(F)F)cc2[n+]([O-])c1C(F)(F)F`, the GI50 was 10.8 µM and the TGI stood at 48.3 µM.
Consider `CCCCC/C(C=C(C#N)C#N)=C/c1ccccc1`, for which the GI50 was 7.74 µM and the TGI is greater than 55.8 µM.
`CC1CCC2(C(=O)O)CCC3(C)C(=CCC4C5(C)CC(O)C(O)C(C)(CO)C5C(O)CC43C)C2C1C` (stereo not given) yielded a TGI greater than 100 µM.
Same read-out and setting: as for `COc1cnc2cc(C(=O)O)c3c([N+](=O)[O-])cccc3c2c1`, the figure is greater than 100 µM.
Consider `Cc1ccc(S(=O)(=O)N(CCOc2ccc(/C(N)=N/Cl)cc2)CCOc2ccc(/C(N)=N\Cl)cc2)cc1`, for which the GI50 is 16.7 µM and the TGI is greater than 100 µM.
On the same counts, the results for `COc1ccc(C2=NN(C(=O)c3cc(OC)c(OC)c(OC)c3)C(c3ccc(C#N)cc3)C2)cc1OC` (stereo not given) are 3.41 µM and greater than 65.1 µM.

A further assay has as its system COLO 205 colon. Put plainly: NCI tumour cell line growth inhibition, 48 h.
On to `COc1cc(OC)cc(-c2ccc(-c3ccc(C(=N)N)o3)o2)c1`, for which the GI50 was 1.84 µM and the TGI came out at 3.79 µM.
Take `C[C@]12CC[C@H](O)CC1=CC[C@@H]1[C@@H]2CC[C@]2(C)C(c3cccnc3)=CC[C@@H]12`: the GI50 was greater than 100 µM and the TGI was greater than 100 µM.
For `Cc1ccc2c(c1)C(=O)/C(=C/c1ncc([N+](=O)[O-])n1C)O2`, the GI50 was 1.99 µM and the TGI was found to be 5.09 µM.
As to `CC1OC(n2cc(F)c(=O)[nH]c2=O)CCC1O` (stereo not given), the TGI is greater than 100 µM.
For the compound `O=C(NCCOCCOCCNc1cccc2c1C(=O)N(C1CCCNC1=O)C2=O)c1cc2c(o1)C(=O)c1ccccc1C2=O` (stereo not given), the GI50 is 2.1 µM and the TGI amounted to 4.12 µM.
On the same counts, the results for `O=C(CN1CCOCC1)Nc1ccc(Cn2nnc3c2C(=O)c2nnn(Cc4ccc(NC(=O)CN5CCOCC5)cc4)c2C3=O)cc1` are 0.199 µM and 0.463 µM.
On the same counts, the results for `O=C(c1ccco1)c1nc2ccc(C(F)(F)F)cc2[n+]([O-])c1C(F)(F)F` are 77.8 µM and greater than 100 µM.
On the same counts, the results for `CCCCC/C(C=C(C#N)C#N)=C/c1ccccc1` are 4.91 µM and 16.3 µM.
`CC1CCC2(C(=O)O)CCC3(C)C(=CCC4C5(C)CC(O)C(O)C(C)(CO)C5C(O)CC43C)C2C1C` (stereo not given) registered a TGI greater than 100 µM.
The compound `COc1cnc2cc(C(=O)O)c3c([N+](=O)[O-])cccc3c2c1` showed a TGI greater than 100 µM.
Consider `Cc1ccc(S(=O)(=O)N(CCOc2ccc(/C(N)=N/Cl)cc2)CCOc2ccc(/C(N)=N\Cl)cc2)cc1`, for which the GI50 was 11 µM and the TGI stood at 28.8 µM.
As to `COc1ccc(C2=NN(C(=O)c3cc(OC)c(OC)c(OC)c3)C(c3ccc(C#N)cc3)C2)cc1OC` (stereo not given), the GI50 is 1.47 µM and the TGI amounted to 4.03 µM.

The subject of the next assay is HL-60(TB) leukemia. Put plainly: NCI tumour cell line growth inhibition, 48 h.
As to `COc1cc(OC)cc(-c2ccc(-c3ccc(C(=N)N)o3)o2)c1`, the GI50 was 1.9 µM and the TGI was 4.24 µM.
The matching figures for `C[C@]12CC[C@H](O)CC1=CC[C@@H]1[C@@H]2CC[C@]2(C)C(c3cccnc3)=CC[C@@H]12`: greater than 100 µM and greater than 100 µM.
The matching figures for `Cc1ccc2c(c1)C(=O)/C(=C/c1ncc([N+](=O)[O-])n1C)O2`: 1.88 µM and 9.71 µM.
On to `CC1OC(n2cc(F)c(=O)[nH]c2=O)CCC1O` (stereo not given), for which the TGI was greater than 100 µM.
In the case of `O=C(NCCOCCOCCNc1cccc2c1C(=O)N(C1CCCNC1=O)C2=O)c1cc2c(o1)C(=O)c1ccccc1C2=O` (stereo not given), the GI50 is 2.38 µM and the TGI worked out at 6.78 µM.
On the same counts, the results for `O=C(CN1CCOCC1)Nc1ccc(Cn2nnc3c2C(=O)c2nnn(Cc4ccc(NC(=O)CN5CCOCC5)cc4)c2C3=O)cc1` are 0.204 µM and 0.61 µM.
Regarding `O=C(c1ccco1)c1nc2ccc(C(F)(F)F)cc2[n+]([O-])c1C(F)(F)F`, the GI50 was 95.2 µM and the TGI was greater than 100 µM.
Consider `CCCCC/C(C=C(C#N)C#N)=C/c1ccccc1`, for which the GI50 is 2.39 µM and the TGI came to 6.32 µM.
Compound `CC1CCC2(C(=O)O)CCC3(C)C(=CCC4C5(C)CC(O)C(O)C(C)(CO)C5C(O)CC43C)C2C1C` (stereo not given) gave a TGI of 47.1 µM.
Still for that read-out and setting: the value for `COc1cnc2cc(C(=O)O)c3c([N+](=O)[O-])cccc3c2c1` was greater than 100 µM.
`Cc1ccc(S(=O)(=O)N(CCOc2ccc(/C(N)=N/Cl)cc2)CCOc2ccc(/C(N)=N\Cl)cc2)cc1`: the GI50 was 7.65 µM and the TGI was determined as 48.6 µM.
On the same counts, the results for `COc1ccc(C2=NN(C(=O)c3cc(OC)c(OC)c(OC)c3)C(c3ccc(C#N)cc3)C2)cc1OC` (stereo not given) are 1.85 µM and 6.01 µM.

Another assay relates to MOLT-4 leukemia. In words: NCI tumour cell line growth inhibition, 48 h.
With `COc1cc(OC)cc(-c2ccc(-c3ccc(C(=N)N)o3)o2)c1`, the GI50 is 2.44 µM and the TGI is 6.7 µM.
The matching figures for `C[C@]12CC[C@H](O)CC1=CC[C@@H]1[C@@H]2CC[C@]2(C)C(c3cccnc3)=CC[C@@H]12`: greater than 38.5 µM and greater than 100 µM.
With `Cc1ccc2c(c1)C(=O)/C(=C/c1ncc([N+](=O)[O-])n1C)O2`, the GI50 is 0.5 µM and the TGI was 7.43 µM.
In turn, `CC1OC(n2cc(F)c(=O)[nH]c2=O)CCC1O` (stereo not given) displayed a TGI greater than 100 µM.
In the case of `O=C(NCCOCCOCCNc1cccc2c1C(=O)N(C1CCCNC1=O)C2=O)c1cc2c(o1)C(=O)c1ccccc1C2=O` (stereo not given), the GI50 was 2.4 µM and the TGI is 6.01 µM.
As for `O=C(CN1CCOCC1)Nc1ccc(Cn2nnc3c2C(=O)c2nnn(Cc4ccc(NC(=O)CN5CCOCC5)cc4)c2C3=O)cc1`, the GI50 was 0.254 µM and the TGI is 0.705 µM.
On the same counts, the results for `O=C(c1ccco1)c1nc2ccc(C(F)(F)F)cc2[n+]([O-])c1C(F)(F)F` are greater than 100 µM and greater than 100 µM.
On the same counts, the results for `CCCCC/C(C=C(C#N)C#N)=C/c1ccccc1` are 2.37 µM and 6.98 µM.
`CC1CCC2(C(=O)O)CCC3(C)C(=CCC4C5(C)CC(O)C(O)C(C)(CO)C5C(O)CC43C)C2C1C` (stereo not given) gave a TGI greater than 100 µM.
Regarding `COc1cnc2cc(C(=O)O)c3c([N+](=O)[O-])cccc3c2c1`, the TGI was greater than 100 µM.
Turning to `Cc1ccc(S(=O)(=O)N(CCOc2ccc(/C(N)=N/Cl)cc2)CCOc2ccc(/C(N)=N\Cl)cc2)cc1`, the GI50 is 30.6 µM and the TGI is greater than 100 µM.
As for `COc1ccc(C2=NN(C(=O)c3cc(OC)c(OC)c(OC)c3)C(c3ccc(C#N)cc3)C2)cc1OC` (stereo not given), the GI50 was 4.27 µM and the TGI is greater than 100 µM.

The next assay deals with HOP-62 NSCLC. Put plainly: NCI tumour cell line growth inhibition, 48 h.
As for `COc1cc(OC)cc(-c2ccc(-c3ccc(C(=N)N)o3)o2)c1`, the GI50 is 5.65 µM and the TGI was found to be 19.1 µM.
The matching figures for `C[C@]12CC[C@H](O)CC1=CC[C@@H]1[C@@H]2CC[C@]2(C)C(c3cccnc3)=CC[C@@H]12`: 18.4 µM and greater than 100 µM.
On the same counts, the results for `Cc1ccc2c(c1)C(=O)/C(=C/c1ncc([N+](=O)[O-])n1C)O2` are 5.79 µM and 16.9 µM.
Compound `CC1OC(n2cc(F)c(=O)[nH]c2=O)CCC1O` (stereo not given) registered a TGI greater than 100 µM.
In the case of `O=C(NCCOCCOCCNc1cccc2c1C(=O)N(C1CCCNC1=O)C2=O)c1cc2c(o1)C(=O)c1ccccc1C2=O` (stereo not given), the GI50 was 1.91 µM and the TGI stood at 3.37 µM.
The matching figures for `O=C(CN1CCOCC1)Nc1ccc(Cn2nnc3c2C(=O)c2nnn(Cc4ccc(NC(=O)CN5CCOCC5)cc4)c2C3=O)cc1`: 1.64 µM and 3.46 µM.
The matching figures for `O=C(c1ccco1)c1nc2ccc(C(F)(F)F)cc2[n+]([O-])c1C(F)(F)F`: 33.6 µM and greater than 100 µM.
On the same counts, the results for `CCCCC/C(C=C(C#N)C#N)=C/c1ccccc1` are 6.98 µM and 17.4 µM.
`CC1CCC2(C(=O)O)CCC3(C)C(=CCC4C5(C)CC(O)C(O)C(C)(CO)C5C(O)CC43C)C2C1C` (stereo not given) displayed a TGI greater than 83.7 µM.
Same read-out and setting: as for `COc1cnc2cc(C(=O)O)c3c([N+](=O)[O-])cccc3c2c1`, the figure is greater than 100 µM.
For `Cc1ccc(S(=O)(=O)N(CCOc2ccc(/C(N)=N/Cl)cc2)CCOc2ccc(/C(N)=N\Cl)cc2)cc1`, the GI50 is 12 µM and the TGI was 33.2 µM.
On the same counts, the results for `COc1ccc(C2=NN(C(=O)c3cc(OC)c(OC)c(OC)c3)C(c3ccc(C#N)cc3)C2)cc1OC` (stereo not given) are 1.53 µM and 36.9 µM.
